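Cells were grown in 96-well plates and exposed to each compound for 48 hours at five concentrations; endpoints were interpolated linearly between bracketing concentrations, or set to the highest concentration if not reached. TGI is the concentration that stops growth completely.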
Assays:
Experiment in all cases: DTP human tumour cell line panel, 48 h
SK-MEL-28 melanoma = system: SK-MEL-28 melanoma
SR leukemia = system: SR leukemia
NCI-H522 lung = system: NCI-H522 lung
CCRF-CEM leukemia = system: CCRF-CEM leukemia
HCT-116 colon = system: HCT-116 colon
TK-10 renal = system: TK-10 renal
UACC-257 melanoma = system: UACC-257 melanoma
MCF7 breast = system: MCF7 breast
OVCAR-5 ovarian = system: OVCAR-5 ovarian
HS 578T breast = system: HS 578T breast
HCT-15 colon = system: HCT-15 colon
PC-3 prostate = system: PC-3 prostate
A549 NSCLC = system: A549 NSCLC
KM12 colon = system: KM12 colon
OVCAR-4 ovarian = system: OVCAR-4 ovarian
MDA-N = system: MDA-N
NCI/ADR-RES ovarian = system: NCI/ADR-RES ovarian
HCC-2998 colon = system: HCC-2998 colon
NCI-H23 lung = system: NCI-H23 lung
NCI-H460 lung = system: NCI-H460 lung
MDA-MB-231 breast = system: MDA-MB-231 breast
DU-145 prostate = system: DU-145 prostate
MDA-MB-435 = system: MDA-MB-435
ACHN renal = system: ACHN renal
CAKI-1 renal = system: CAKI-1 renal
SK-OV-3 ovarian = system: SK-OV-3 ovarian
OVCAR-3 ovarian = system: OVCAR-3 ovarian
LOX IMVI melanoma = system: LOX IMVI melanoma
EKVX NSCLC = system: EKVX NSCLC
SF-268 CNS = system: SF-268 CNS
SK-MEL-5 melanoma = system: SK-MEL-5 melanoma
786-0 renal = system: 786-0 renal
RPMI-8226 leukemia = system: RPMI-8226 leukemia
MOLT-4 leukemia = system: MOLT-4 leukemia
K-562 leukemia = system: K-562 leukemia
NCI-H226 lung = system: NCI-H226 lung
HT29 colon = system: HT29 colon
M14 melanoma = system: M14 melanoma
T-47D breast = system: T-47D breast
SNB-19 CNS = system: SNB-19 CNS
BT-549 breast = system: BT-549 breast
A498 renal = system: A498 renal
UO-31 renal = system: UO-31 renal
HOP-62 NSCLC = system: HOP-62 NSCLC
SNB-75 CNS = system: SNB-75 CNS
SN12C renal = system: SN12C renal
SK-MEL-2 melanoma = system: SK-MEL-2 melanoma
SW-620 colon = system: SW-620 colon
COLO 205 colon = system: COLO 205 colon
SF-295 CNS = system: SF-295 CNS
U251 CNS = system: U251 CNS
SF-539 CNS = system: SF-539 CNS
IGROV1 ovarian = system: IGROV1 ovarian
HOP-92 NSCLC = system: HOP-92 NSCLC
OVCAR-8 ovarian = system: OVCAR-8 ovarian
UACC-62 melanoma = system: UACC-62 melanoma
MALME-3M melanoma = system: MALME-3M melanoma

SMILES: COc1cc(/C=C2/CCS(=O)(=O)c3ccc(C)cc3C2=O)cc(OC)c1OC
- TGI (SK-MEL-28 melanoma): > 37.4 µM
- TGI (SR leukemia): 7.13 µM
- TGI (NCI-H522 lung): 12.4 µM
- TGI (CCRF-CEM leukemia): > 100 µM
- TGI (HCT-116 colon): 11.2 µM
- TGI (TK-10 renal): > 44.5 µM
- TGI (UACC-257 melanoma): > 42.7 µM
- TGI (MCF7 breast): 14.9 µM
- TGI (OVCAR-5 ovarian): 25.4 µM
- TGI (HS 578T breast): > 35.9 µM
- TGI (HCT-15 colon): > 39 µM
- TGI (PC-3 prostate): > 100 µM
- TGI (A549 NSCLC): > 42 µM
- TGI (KM12 colon): > 41.2 µM
- TGI (OVCAR-4 ovarian): > 100 µM
- TGI (MDA-N): > 33.3 µM
- TGI (NCI/ADR-RES ovarian): > 28.6 µM
- TGI (HCC-2998 colon): > 35.7 µM
- TGI (NCI-H23 lung): > 36.2 µM
- TGI (NCI-H460 lung): 13.5 µM
- TGI (MDA-MB-231 breast): 11.2 µM
- TGI (DU-145 prostate): > 27.6 µM
- TGI (MDA-MB-435): > 27.2 µM
- TGI (ACHN renal): 14.2 µM
- TGI (CAKI-1 renal): > 40.8 µM
- TGI (SK-OV-3 ovarian): 37.8 µM
- TGI (OVCAR-3 ovarian): 20.1 µM
- TGI (LOX IMVI melanoma): 6.4 µM
- TGI (EKVX NSCLC): 30.2 µM
- TGI (SF-268 CNS): > 49.2 µM
- TGI (SK-MEL-5 melanoma): > 38.3 µM
- TGI (786-0 renal): > 35.4 µM
- TGI (RPMI-8226 leukemia): 6.6 µM
- TGI (MOLT-4 leukemia): > 100 µM
- TGI (K-562 leukemia): 4.06 µM
- TGI (NCI-H226 lung): 45.9 µM
- TGI (HT29 colon): > 33.8 µM
- TGI (M14 melanoma): 18.9 µM
- TGI (T-47D breast): > 52.7 µM
- TGI (SNB-19 CNS): > 34.8 µM
- TGI (BT-549 breast): > 26.3 µM
- TGI (A498 renal): 23.7 µM
- TGI (UO-31 renal): 23.4 µM
- TGI (HOP-62 NSCLC): 23.1 µM
- TGI (SNB-75 CNS): 30 µM
- TGI (SN12C renal): 21.9 µM
- TGI (SK-MEL-2 melanoma): 99.2 µM
- TGI (SW-620 colon): > 45.4 µM
- TGI (COLO 205 colon): 16.9 µM
- TGI (SF-295 CNS): 42.1 µM
- TGI (U251 CNS): > 31 µM
- TGI (SF-539 CNS): 7.05 µM
- TGI (IGROV1 ovarian): > 39.4 µM
- TGI (HOP-92 NSCLC): > 43.2 µM
- TGI (OVCAR-8 ovarian): 11.5 µM
- TGI (UACC-62 melanoma): 16.8 µM
- TGI (MALME-3M melanoma): > 36.3 µM
